In ChEMBL document CHEMBL1126805, “Synthesis and evaluation of a series of benzylaniline hydrochlorides as potential cytotoxic and antimitotic agents acting by inhibition of tubulin polymerization” (J Med Chem, 1993):

Tests used:
DMS-273 = assay: Tested for cytotoxicity against DMS 273 (small-cell lung cancer) cell line.; type: functional, Homo sapiens
Tubulin = Tubulin (Bos taurus, UniProt Q6B856+Q862F3); assay: In vitro inhibition of bovine electrophoretically homogeneous tubulin polymerization.; type: functional
SF-295 = assay: In vitro cytotoxicity against SF-295 (CNS cancer) cell line.; type: functional, Homo sapiens
OVCAR-3 = assay: Tested for cytotoxicity against OVCAR-3 (ovarian cancer) cell line.; type: functional, Homo sapiens
CAKI-1 = assay: Tested for cytotoxicity against CAKI-1 renal cancer; type: functional, Homo sapiens
HL-60 = assay: Tested for cytotoxicity against human cancer cell lines HL-60(TB) (leukemia) cell line.; type: functional
COLO 205 = assay: Tested for cytotoxicity against COLO 205 (colon cancer) cell line.; type: functional, Homo sapiens
NCI-H522 = assay: Tested for cytotoxicity against NCI-H522 (non-small-cell lung cancer) cell line.; type: functional, Homo sapiens
M14 = assay: Tested for cytotoxicity against M14 melanoma; type: functional, Homo sapiens

Chain of Tubulin (Q6B856 whole entry): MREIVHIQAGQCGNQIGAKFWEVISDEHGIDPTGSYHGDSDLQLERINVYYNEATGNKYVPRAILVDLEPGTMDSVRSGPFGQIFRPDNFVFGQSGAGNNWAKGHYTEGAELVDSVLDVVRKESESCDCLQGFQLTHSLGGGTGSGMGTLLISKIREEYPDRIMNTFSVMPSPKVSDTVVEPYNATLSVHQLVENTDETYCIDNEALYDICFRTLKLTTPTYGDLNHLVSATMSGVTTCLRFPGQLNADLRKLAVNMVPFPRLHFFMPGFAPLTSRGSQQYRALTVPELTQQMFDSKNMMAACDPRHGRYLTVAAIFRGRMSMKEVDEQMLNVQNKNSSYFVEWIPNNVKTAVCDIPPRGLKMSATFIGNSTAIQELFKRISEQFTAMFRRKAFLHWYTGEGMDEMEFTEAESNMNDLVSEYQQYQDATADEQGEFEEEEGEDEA
Chain of Tubulin (Q862F3 whole entry): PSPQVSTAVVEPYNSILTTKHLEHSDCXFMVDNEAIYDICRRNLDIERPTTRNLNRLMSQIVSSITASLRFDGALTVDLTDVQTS

Row | SMILES | GI50 (DMS-273; Homo sapiens, DMS-273) [µM] | IC50 (Tubulin) [µM] | GI50 (SF-295) [nM] | GI50 (DMS-273) [µM] | GI50 (OVCAR-3) [nM] | GI50 (CAKI-1) [nM] | GI50 (HL-60) [nM] | GI50 (COLO 205) [nM] | GI50 (NCI-H522) [nM] | GI50 (M14) [nM] | GI50 (M14; Homo sapiens, M14) [nM] | GI50 (OVCAR-3; Homo sapiens, OVCAR-3) [nM] | GI50 (CAKI-1; Homo sapiens, CAKI-1) [nM] | GI50 (HL-60; Homo sapiens, HL-60) [nM] | GI50 (COLO 205; Homo sapiens, COLO 205) [nM] | GI50 (NCI-H522; Homo sapiens, NCI-H522) [nM] | GI50 (SF-295; Homo sapiens, SF-295) [nM]
1 | COc1cc(CNc2ccc(C(C)C)cc2)cc(OC)c1OC | 12.9 | > 40 |  |  |  |  |  |  |  |  |  |  |  |  |  |  | 
2 | COc1ccc(NCc2cc(OC)c(OC)c(OC)c2)cc1 [listing 1 of 2 here] |  | 4.6 | 266 | 0.141 | 363 | 458 | 115 | 235 | 412 |  |  |  |  |  |  |  | 
3 | CCOc1ccc(NCc2cc(OC)c(OC)c(OC)c2)cc1 [listing 1 of 2 here] |  | 11 | 418 | 0.961 | 464 | 1050 | 448 | 538 | 574 | 532 |  |  |  |  |  |  | 
4 | COc1cc(CNc2ccc(SC)cc2)cc(OC)c1OC | 3.09 | > 40 | 7280 |  |  |  |  |  |  |  | 5260 | 5930 | 32000 | 3700 | 3880 | 4680 | 
5 | CCCc1ccc(NCc2cc(OC)c(OC)c(OC)c2)cc1 | 16.2 | > 40 |  |  |  |  |  |  |  |  |  |  |  |  |  |  | 
6 | CCc1ccc(/N=C/c2cc(OC)c(OC)c(OC)c2)cc1 | > 100 | > 40 |  |  |  |  |  |  |  |  | > 100000 | > 100000 | > 100000 |  |  | > 100000 | > 100000
7 | COc1ccc(NCc2cc(OC)c(OC)c(OC)c2)cc1 [listing 2 of 2 here] |  | 8.9 | 2320 | 0.534 | 1960 | 2500 | 834 | 1660 | 2760 |  | 2380 |  |  |  |  |  | 
8 | CCOc1ccc(NCc2cc(OC)c(OC)c(OC)c2)cc1 [listing 2 of 2 here] |  | 12 |  | 0.296 |  |  |  |  |  |  | 403 | 340 | 2040 | 296 | 432 | 380 | 274
9 | COc1ccc(/N=C/c2cc(OC)c(OC)c(OC)c2)cc1 | 33 | > 40 |  |  |  |  |  |  |  |  |  | > 100000 | > 100000 |  |  | > 100000 | 
